Experimental data taken from patent US7250410B2, “Cyclic nucleotide phosphodiesterase inhibitors, preparation and uses thereof” (Via Pharmaceuticals, Inc., priority 2001, dated 2007).
Values joined by “and” are separate entries in the source; they are usually repeats but may differ in a detail not shown here. Equal values may be shown once.

test system: PDE4; assay: Inhibition of PDE4, radioenzymatic phosphodiesterase assay; format: biochemical, bovine; conditions: Table 2, formula (XXII); compound at 10 μM
Summary of the method: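 PDE4 partially purified from bovine aortic media by 105,000 g centrifugation and anion-exchange chromatography with an NaCl gradient. Activity measured radioenzymatically: product nucleoside separated from nucleotides by anion exchange and counted by liquid scintillation.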

Question: With `COc1cc2c(cc1OC)C(c1ccccc1)=NCC(=O)N2` [XXIIaa, 7,8-dimethoxy-5-phenyl-1,3-dihydro-2H-1,4-benzodiazepin-2-one] as the compound, how does the “PDE4 percentage inhibition at 10 μM” value read?
Answer: 25.8%

Question: `COc1cc2c(cc1OC)C(c1ccccc1Br)=NCC(=O)N2` [XXIIal, 5-(2-bromophenyl)-7,8-dimethoxy-1,3-dihydro-2H-1,4-benzodiazepin-2-one] was tested. Which “PDE4 percentage inhibition at 10 μM” value did it give?
Answer: 23.9%

Question: With `COc1cc2c(cc1OC)C(c1ccccc1)=NC(Cc1c[nH]c3ccccc13)C(=O)N2` (centres unmarked) [XXIIas, 7,8-dimethoxy-3-(1H-indol-3-ylmethyl)-5-phenyl-1,3-dihydro-2H-1,4-benzodiazepin-2-one] as the compound, how does the “PDE4 percentage inhibition at 10 μM” value read?
Answer: 41.3%

same assay, conditions: Table 3, formula (II); 1 μM cyclic AMP

Question: `CCN1C(=O)CN=C(c2ccc(C#Cc3ccccc3)cc2)c2cc(OC)c(OC)cc21` [IIbr, 1-ethyl-7,8-dimethoxy-5-[4-(phenylethynyl)phenyl]-1,3-dihydro-2H-1,4-benzodiazepin-2-one] was tested. Which IC50 did it give?
Answer: 6600 nM and 3800 nM

Question: For `CCOc1cc2c(cc1OCC)N(C)C(=O)CN=C2c1ccccc1` [IIbf, 7,8-diethoxy-1-methyl-5-phenyl-1,3-dihydro-2H-1,4-benzodiazepin-2-one], which IC50 is on record?
Answer: 860 nM

Question: `COc1cc2c(cc1OC)N(C)C(=O)CN=C2c1ccc2cc(OCc3ccccc3)ccc2c1` [IIao, 5-(6-benzyloxy-2-naphthyl)-7,8-dimethoxy-1-methyl-1,3-dihydro-1,4-benzodiazepin-2-one] was tested. Which IC50 did it give?
Answer: 1600 nM

Question: For “[(7,8-dimethoxy-1-ethyl-2-oxo-2,3-dihydro-1H-1,4-benzodiazepin-3-yl)benz-2-yl]carboxamide [IIci]”, which IC50 is on record?
Answer: 1450 nM

same assay, conditions: Table 3, formula (II); compound at 10 μM

Question: Which “PDE4 percentage inhibition at 10 μM” value does the source give for `COc1cc2c(cc1OC)N(C)C(=O)CN=C2N1CCCCC1` [IIar, 7,8-dimethoxy-1-methyl-5-(piperidin-1-yl)-1,3-dihydro-1,4-benzodiazepin-2-one] here?
Answer: 0%

Question: For `CCN1C(=O)C(Cc2ccc(Cl)cc2Cl)N=C(c2ccccc2)c2cc(OC)c(OC)cc21` (centres unmarked) [IIco, 3-(2,4-dichlorobenzyl)-7,8-dimethoxy-1-ethyl-5-phenyl-1,3-dihydro-2H-1,4-benzodiazepin-2-one], which “PDE4 percentage inhibition at 10 μM” value is on record?
Answer: 34.3%

Question: For `COc1cc2c(cc1OC)N(C)C(=O)CN=C2C#Cc1ccccc1` [IIat, 7,8-dimethoxy-1-methyl-5-(2-phenylethynyl)-1,3-dihydro-2H-1,4-benzodiazepin-2-one], which “PDE4 percentage inhibition at 10 μM” value is on record?
Answer: 3.9%

Question: For `COc1cc2c(cc1OC)N(C)C(=O)CN=C2c1ccccc1C` [IIau, 7,8-dimethoxy-1-methyl-5-(2-methylphenyl)-1,3-dihydro-1,4-benzodiazepin-2-one], which “PDE4 percentage inhibition at 10 μM” value is on record?
Answer: 18.5%

Question: How did the “PDE4 percentage inhibition at 10 μM” value turn out when `COc1cc2c(cc1OC)N(C)C(=O)CN=C2CCc1ccccc1` [IIaz, 7,8-dimethoxy-1-methyl-5-(2-phenylethyl)-1,3-dihydro-2H-1,4-benzodiazepin-2-one] was run?
Answer: 6.9%

Question: How did the “PDE4 percentage inhibition at 10 μM” value turn out when `COc1cc2c(cc1OC)N(C)C(=O)CN=C2c1ccccc1OC` [IIam, 7,8-dimethoxy-5-(2-methoxyphenyl)-1-methyl-1,3-dihydro-1,4-benzodiazepin-2-one] was run?
Answer: 20%

Question: `CCN1C(=O)C(C/C=C/c2ccccc2)N=C(c2ccccc2)c2cc(OC)c(OC)cc21` (centres unmarked) [IIbz, 7,8-dimethoxy-1-ethyl-3-(E-3-phenylpropen-2yl)-5-phenyl-1,3-dihydro-2H-1,4-benzodiazepin-2-one] was tested. Which “PDE4 percentage inhibition at 10 μM” value did it give?
Answer: 42.3%
